# US20260027116A1, “Methods of Treating Chronic Graft-Versus-Host Disease Following Allogeneic Hematopoietic Stem Cell Transplantation” (Kadmon Corporation, LLC, priority 2022, published 2026)
# How the values were obtained:
# [1] = test system: lung function; test: Example 1: percent predicted HGB corrected DLco change from baseline; format: in vivo, human; details: mean (SD)
# Text: Change From Baseline in Percent Predicted Hemoglobin (HGB) Corrected Diffusing Capacity of Lung for Carbon Monoxide (DLco) at Each Specified Time Points. DLco is a measurement of the ability of the lungs to transfer gases from the air to the blood. Change from baseline in diffusing capacity of the lung for carbon monoxide (percent predicted hemoglobin level corrected) was reported for this measure. Baseline value was defined as valid and last non-missing value obtained within 28 days prior to participant receiving first study medication. EOT visit was performed within 3 days after the participant's last dose of study drug. […] Analysis was performed on mITT population. Here, ‘number analyzed’=participants with available data for each specified category. Here, ‘O’ in the number analyzed field signifies that none of the participants were available for the analysis at the specified time points.
# [2] = target: CYP2D6 (Homo sapiens, UniProt P10635); test: metabolism in vitro; format: in vitro ADME
# [3] = pharmacokinetics in healthy subjects (bioavailability, food effect, distribution, excretion); format: in vivo, human
# CYP2D6, sequence (P10635 whole entry): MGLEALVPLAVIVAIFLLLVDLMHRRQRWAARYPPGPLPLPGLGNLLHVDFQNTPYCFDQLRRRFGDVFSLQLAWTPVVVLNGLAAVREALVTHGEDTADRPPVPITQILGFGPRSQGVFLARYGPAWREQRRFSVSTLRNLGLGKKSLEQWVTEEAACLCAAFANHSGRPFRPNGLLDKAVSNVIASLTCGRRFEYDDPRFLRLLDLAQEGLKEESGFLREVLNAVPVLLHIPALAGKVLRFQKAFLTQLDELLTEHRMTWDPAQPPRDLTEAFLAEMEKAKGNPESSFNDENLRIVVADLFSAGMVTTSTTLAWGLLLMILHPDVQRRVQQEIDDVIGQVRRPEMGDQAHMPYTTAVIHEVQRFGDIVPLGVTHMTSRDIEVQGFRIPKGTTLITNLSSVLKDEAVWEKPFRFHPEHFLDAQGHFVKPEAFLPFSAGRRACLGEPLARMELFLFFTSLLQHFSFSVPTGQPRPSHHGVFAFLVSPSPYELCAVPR
smiles,measurement,setting,value
"CC(C)NC(=O)COc1cccc(-c2nc(Nc3ccc4[nH]ncc4c3)c3ccccc3n2)c1 [Belumosudil, 2-{3-[4-(1H-indazol-5-ylamino)-2-quinazolinyl]phenoxy}-N-(propan-2-yl) acetamide]",Change From Baseline in Percent Predicted Hemoglobin (HGB) Corrected Diffusing Capacity of Lung for Carbon Monoxide (DLco),"[1]; Cohort 2: 200 mg BID, Cycle 18, Day 1",15.543 (11.753) Percent Predicted HGB Corrected DLco
same,Change From Baseline in Percent Predicted Hemoglobin (HGB) Corrected Diffusing Capacity of Lung for Carbon Monoxide (DLco),"[1]; Cohort 2: 200 mg BID, Cycle 19, Day 1",1.824 (8.539) Percent Predicted HGB Corrected DLco
same,Change From Baseline in Percent Predicted Hemoglobin (HGB) Corrected Diffusing Capacity of Lung for Carbon Monoxide (DLco),"[1]; Cohort 2: 200 mg BID, Cycle 20, Day 1",−14.692 (—) Percent Predicted HGB Corrected DLco
same,Change From Baseline in Percent Predicted Hemoglobin (HGB) Corrected Diffusing Capacity of Lung for Carbon Monoxide (DLco),"[1]; Cohort 2: 200 mg BID, Cycle 21, Day 1",−10.661 (—) Percent Predicted HGB Corrected DLco
same,Change From Baseline in Percent Predicted Hemoglobin (HGB) Corrected Diffusing Capacity of Lung for Carbon Monoxide (DLco),"[1]; Cohort 2: 200 mg BID, Cycle 22, Day 1",3.347 (3.560) Percent Predicted HGB Corrected DLco
same,Change From Baseline in Percent Predicted Hemoglobin (HGB) Corrected Diffusing Capacity of Lung for Carbon Monoxide (DLco),"[1]; Cohort 2: 200 mg BID, Cycle 23, Day 1",−15.184 (20.181) Percent Predicted HGB Corrected DLco
same,Change From Baseline in Percent Predicted Hemoglobin (HGB) Corrected Diffusing Capacity of Lung for Carbon Monoxide (DLco),"[1]; Cohort 2: 200 mg BID, Cycle 24, Day 1",−18.095 (—) Percent Predicted HGB Corrected DLco
same,Change From Baseline in Percent Predicted Hemoglobin (HGB) Corrected Diffusing Capacity of Lung for Carbon Monoxide (DLco),"[1]; Cohort 2: 200 mg BID, Cycle 25, Day 1",6.289 (2.469) Percent Predicted HGB Corrected DLco
same,Change From Baseline in Percent Predicted Hemoglobin (HGB) Corrected Diffusing Capacity of Lung for Carbon Monoxide (DLco),"[1]; Cohort 2: 200 mg BID, Cycle 27, Day 1",−9.914 (15.387) Percent Predicted HGB Corrected DLco
same,Change From Baseline in Percent Predicted Hemoglobin (HGB) Corrected Diffusing Capacity of Lung for Carbon Monoxide (DLco),"[1]; Cohort 2: 200 mg BID, Cycle 29, Day 1",−18.814 (24.960) Percent Predicted HGB Corrected DLco
same,Change From Baseline in Percent Predicted Hemoglobin (HGB) Corrected Diffusing Capacity of Lung for Carbon Monoxide (DLco),"[1]; Cohort 2: 200 mg BID, Cycle 31, Day 1",−0.800 (17.528) Percent Predicted HGB Corrected DLco
same,Change From Baseline in Percent Predicted Hemoglobin (HGB) Corrected Diffusing Capacity of Lung for Carbon Monoxide (DLco),"[1]; Cohort 2: 200 mg BID, Cycle 33, Day 1",−5.962 (10.550) Percent Predicted HGB Corrected DLco
same,Change From Baseline in Percent Predicted Hemoglobin (HGB) Corrected Diffusing Capacity of Lung for Carbon Monoxide (DLco),"[1]; Cohort 2: 200 mg BID, Cycle 35, Day 1",−0.426 (6.677) Percent Predicted HGB Corrected DLco
same,Change From Baseline in Percent Predicted Hemoglobin (HGB) Corrected Diffusing Capacity of Lung for Carbon Monoxide (DLco),"[1]; Cohort 2: 200 mg BID, Cycle 37, Day 1",−19.228 (—) Percent Predicted HGB Corrected DLco
same,Change From Baseline in Percent Predicted Hemoglobin (HGB) Corrected Diffusing Capacity of Lung for Carbon Monoxide (DLco),"[1]; Cohort 2: 200 mg BID, Cycle 39, Day 1",−6.813 (12.810) Percent Predicted HGB Corrected DLco
same,Change From Baseline in Percent Predicted Hemoglobin (HGB) Corrected Diffusing Capacity of Lung for Carbon Monoxide (DLco),"[1]; Cohort 2: 200 mg BID, Cycle 43, Day 1",8.775 (—) Percent Predicted HGB Corrected DLco
same,Change From Baseline in Percent Predicted Hemoglobin (HGB) Corrected Diffusing Capacity of Lung for Carbon Monoxide (DLco),"[1]; Cohort 2: 200 mg BID, EOT",0.985 (5.919) Percent Predicted HGB Corrected DLco
same,Change From Baseline in Percent Predicted Hemoglobin (HGB) Corrected Diffusing Capacity of Lung for Carbon Monoxide (DLco),"[1]; Cohort 3: 400 mg QD, Cycle 2, Day 1",−5.243 (9.830) Percent Predicted HGB Corrected DLco
same,Change From Baseline in Percent Predicted Hemoglobin (HGB) Corrected Diffusing Capacity of Lung for Carbon Monoxide (DLco),"[1]; Cohort 3: 400 mg QD, Cycle 3, Day 1",−3.928 (9.492) Percent Predicted HGB Corrected DLco
same,Change From Baseline in Percent Predicted Hemoglobin (HGB) Corrected Diffusing Capacity of Lung for Carbon Monoxide (DLco),"[1]; Cohort 3: 400 mg QD, Cycle 4, Day 1",0.278 (9.683) Percent Predicted HGB Corrected DLco
same,Change From Baseline in Percent Predicted Hemoglobin (HGB) Corrected Diffusing Capacity of Lung for Carbon Monoxide (DLco),"[1]; Cohort 3: 400 mg QD, Cycle 5, Day 1",−4.111 (9.138) Percent Predicted HGB Corrected DLco
same,Change From Baseline in Percent Predicted Hemoglobin (HGB) Corrected Diffusing Capacity of Lung for Carbon Monoxide (DLco),"[1]; Cohort 3: 400 mg QD, Cycle 6, Day 1",−3.143 (10.385) Percent Predicted HGB Corrected DLco
same,Change From Baseline in Percent Predicted Hemoglobin (HGB) Corrected Diffusing Capacity of Lung for Carbon Monoxide (DLco),"[1]; Cohort 3: 400 mg QD, Cycle 7, Day 1",−4.275 (11.464) Percent Predicted HGB Corrected DLco
same,Change From Baseline in Percent Predicted Hemoglobin (HGB) Corrected Diffusing Capacity of Lung for Carbon Monoxide (DLco),"[1]; Cohort 3: 400 mg QD, Cycle 8, Day 1",−3.787 (11.983) Percent Predicted HGB Corrected DLco
same,Change From Baseline in Percent Predicted Hemoglobin (HGB) Corrected Diffusing Capacity of Lung for Carbon Monoxide (DLco),"[1]; Cohort 3: 400 mg QD, Cycle 9, Day 1",−2.540 (11.897) Percent Predicted HGB Corrected DLco
same,Change From Baseline in Percent Predicted Hemoglobin (HGB) Corrected Diffusing Capacity of Lung for Carbon Monoxide (DLco),"[1]; Cohort 3: 400 mg QD, Cycle 10, Day 1",1.328 (8.887) Percent Predicted HGB Corrected DLco
same,Change From Baseline in Percent Predicted Hemoglobin (HGB) Corrected Diffusing Capacity of Lung for Carbon Monoxide (DLco),"[1]; Cohort 3: 400 mg QD, Cycle 11, Day 1",−2.720 (10.920) Percent Predicted HGB Corrected DLco
same,Change From Baseline in Percent Predicted Hemoglobin (HGB) Corrected Diffusing Capacity of Lung for Carbon Monoxide (DLco),"[1]; Cohort 3: 400 mg QD, Cycle 12, Day 1",−1.378 (6.364) Percent Predicted HGB Corrected DLco
same,Change From Baseline in Percent Predicted Hemoglobin (HGB) Corrected Diffusing Capacity of Lung for Carbon Monoxide (DLco),"[1]; Cohort 3: 400 mg QD, Cycle 13, Day 1",2.091 (13.290) Percent Predicted HGB Corrected DLco
same,Change From Baseline in Percent Predicted Hemoglobin (HGB) Corrected Diffusing Capacity of Lung for Carbon Monoxide (DLco),"[1]; Cohort 3: 400 mg QD, Cycle 14, Day 1",0.309 (11.651) Percent Predicted HGB Corrected DLco
same,Change From Baseline in Percent Predicted Hemoglobin (HGB) Corrected Diffusing Capacity of Lung for Carbon Monoxide (DLco),"[1]; Cohort 3: 400 mg QD, Cycle 15, Day 1",−5.309 (11.514) Percent Predicted HGB Corrected DLco
same,Change From Baseline in Percent Predicted Hemoglobin (HGB) Corrected Diffusing Capacity of Lung for Carbon Monoxide (DLco),"[1]; Cohort 3: 400 mg QD, Cycle 16, Day 1",−6.840 (15.053) Percent Predicted HGB Corrected DLco
same,Change From Baseline in Percent Predicted Hemoglobin (HGB) Corrected Diffusing Capacity of Lung for Carbon Monoxide (DLco),"[1]; Cohort 3: 400 mg QD, Cycle 17, Day 1",−10.865 (13.346) Percent Predicted HGB Corrected DLco
same,Change From Baseline in Percent Predicted Hemoglobin (HGB) Corrected Diffusing Capacity of Lung for Carbon Monoxide (DLco),"[1]; Cohort 3: 400 mg QD, Cycle 18, Day 1",−3.174 (3.106) Percent Predicted HGB Corrected DLco
same,Change From Baseline in Percent Predicted Hemoglobin (HGB) Corrected Diffusing Capacity of Lung for Carbon Monoxide (DLco),"[1]; Cohort 3: 400 mg QD, Cycle 19, Day 1",−2.020 (2.436) Percent Predicted HGB Corrected DLco
same,Change From Baseline in Percent Predicted Hemoglobin (HGB) Corrected Diffusing Capacity of Lung for Carbon Monoxide (DLco),"[1]; Cohort 3: 400 mg QD, Cycle 20, Day 1",−13.517 (5.936) Percent Predicted HGB Corrected DLco
same,Change From Baseline in Percent Predicted Hemoglobin (HGB) Corrected Diffusing Capacity of Lung for Carbon Monoxide (DLco),"[1]; Cohort 3: 400 mg QD, Cycle 21, Day 1",−12.354 (12.800) Percent Predicted HGB Corrected DLco
same,Change From Baseline in Percent Predicted Hemoglobin (HGB) Corrected Diffusing Capacity of Lung for Carbon Monoxide (DLco),"[1]; Cohort 3: 400 mg QD, Cycle 22, Day 1",−17.222 (16.947) Percent Predicted HGB Corrected DLco
same,Change From Baseline in Percent Predicted Hemoglobin (HGB) Corrected Diffusing Capacity of Lung for Carbon Monoxide (DLco),"[1]; Cohort 3: 400 mg QD, Cycle 23, Day 1",−2.219 (10.614) Percent Predicted HGB Corrected DLco
same,Change From Baseline in Percent Predicted Hemoglobin (HGB) Corrected Diffusing Capacity of Lung for Carbon Monoxide (DLco),"[1]; Cohort 3: 400 mg QD, Cycle 24, Day 1",−11.430 (—) Percent Predicted HGB Corrected DLco
same,Change From Baseline in Percent Predicted Hemoglobin (HGB) Corrected Diffusing Capacity of Lung for Carbon Monoxide (DLco),"[1]; Cohort 3: 400 mg QD, Cycle 25, Day 1",−13.392 (—) Percent Predicted HGB Corrected DLco
same,Change From Baseline in Percent Predicted Hemoglobin (HGB) Corrected Diffusing Capacity of Lung for Carbon Monoxide (DLco),"[1]; Cohort 3: 400 mg QD, Cycle 27, Day 1",−11.154 (—) Percent Predicted HGB Corrected DLco
same,Change From Baseline in Percent Predicted Hemoglobin (HGB) Corrected Diffusing Capacity of Lung for Carbon Monoxide (DLco),"[1]; Cohort 3: 400 mg QD, Cycle 29, Day 1",8.613 (—) Percent Predicted HGB Corrected DLco
same,Change From Baseline in Percent Predicted Hemoglobin (HGB) Corrected Diffusing Capacity of Lung for Carbon Monoxide (DLco),"[1]; Cohort 3: 400 mg QD, Cycle 31, Day 1",10.833 (—) Percent Predicted HGB Corrected DLco
same,Change From Baseline in Percent Predicted Hemoglobin (HGB) Corrected Diffusing Capacity of Lung for Carbon Monoxide (DLco),"[1]; Cohort 3: 400 mg QD, Cycle 35, Day 1",5.088 (—) Percent Predicted HGB Corrected DLco
same,Change From Baseline in Percent Predicted Hemoglobin (HGB) Corrected Diffusing Capacity of Lung for Carbon Monoxide (DLco),"[1]; Cohort 3: 400 mg QD, Cycle 36, Day 1",10.372 (—) Percent Predicted HGB Corrected DLco
same,Change From Baseline in Percent Predicted Hemoglobin (HGB) Corrected Diffusing Capacity of Lung for Carbon Monoxide (DLco),"[1]; Cohort 3: 400 mg QD, Cycle 39, Day 1",5.902 (—) Percent Predicted HGB Corrected DLco
same,Change From Baseline in Percent Predicted Hemoglobin (HGB) Corrected Diffusing Capacity of Lung for Carbon Monoxide (DLco),"[1]; Cohort 3: 400 mg QD, EOT",−10.371 (14.208) Percent Predicted HGB Corrected DLco
same,metabolism by CYP2D6,[2],to a lesser extent
same,"food effect, Cmax increase",[3]; high-fat high-calorie meal vs fasted,2.2 times
same,radioactivity recovered in feces,[3]; single oral radiolabeled dose,85%
same,radioactivity recovered in urine,[3]; single oral radiolabeled dose,less than 5%
same,recovered in feces as unchanged,[3]; single oral radiolabeled dose,30%
